The source of these data is publication PMC12693182, “Synthesis and QSAR Studies of Claramine Derivatives, a New Class of Broad-Spectrum Antimicrobial Agents” (Molecules, 2025).

In one assay the test system is S. aureus 340. Briefly: MIC, broth microdilution. Conditions: for MIC S. aureus 340: 24 h; for MIC: Staphylococcus aureus, 340, 24 h. In kind it is cell-based, Staphylococcus aureus. The method, then:
(§1) Antimicrobial activity of the compounds was studied by determination of minimal inhibitory concentrations (MIC) according to the NCCLS guidelines M7-A2 using the microbroth dilution methods. The bacteria strains were grown on trypticase soy agar (Becton Dickinson) at 37 °C for 24 h. Inocula were prepared in TCE (tryptone 0.1%, […], wt/vol) by ajusting the turbidity at 623 nm to obtain 1–3 10^5 CFU/mL.
(§2) Antimicrobial activities of the compounds were determined by using a broth microdilution method performed in sterile 96-well microplates. All compounds were solubilized in water at a concentration of 10 mM and were transferred to each microplate well in order to obtain a two-fold serial dilution in 100 µL of broth and 100 µL of inoculum containing 2–6 10^5 CFU of each bacterium were added to each well. Some wells were reserved for positive controls and inoculum viability.

Another assay has as its system S. aureus ATCC 25923. Nature of the assay: MIC, broth microdilution. It is filed as cell-based, Staphylococcus aureus. Conditions: ATCC strain; for MIC: Staphylococcus aureus, ATCC25923, 24 h. The method, then: as §1, §2
On the technique in general: Broth dilution looks for growth in wells or tubes with falling amounts of substance.

A further assay relates to S. intermedius 1051997. Nature of the assay: MIC, broth microdilution. In kind it is cell-based, Staphylococcus intermedius. The settings on record: 24 h; for MIC: Staphylococcus intermedius, 1051997, 24 h. The protocol:
as §1, §2

The test system of the next assay is E. faecalis ATCC29212. Briefly: MIC, broth microdilution. In kind it is cell-based, Enterococccus faecalis. Conditions: ATCC strain; for MIC: Enterococcus faecalis, ATCC29212, 24 h, read-out: MIC E. faecalis 29212. The protocol:
as §1, §2

In a further assay the test system is E. coli 1956. Nature of the assay: MIC, broth microdilution. The settings on record: for MIC: Escherichia coli, 1956, 24 h. It is filed as cell-based, Escherichia coli. The protocol: as §1, §2
The subject of a further assay is E. coli ATCC 25922. Nature of the assay: MIC, broth microdilution. Conditions: ATCC strain; for MIC: Escherichia coli, ATCC25922, 24 h. In kind it is cell-based, Escherichia coli. The protocol: as §1, §2
For another assay, the system named is P. aeruginosa 1051575. Nature of the assay: MIC, broth microdilution. It is filed as cell-based, Pseudomonas aeruginosa. The settings on record: 24 h; for MIC: Pseudomonas aeruginosa, 1051575, 24 h. The method, then:
as §1, §2

The next assay concerns P. aeruginosa ATCC 27853. Nature of the assay: MIC, broth microdilution. The settings on record: ATCC strain; for MIC: Pseudomonas aeruginosa, ATCC27853, 24 h. It is filed as cell-based, Pseudomonas aeruginosa. The protocol:
as §1, §2

In assay [1] the test system is Chinese hamster Ovary cells (CHO-K1). Nature of the assay: Cytotoxicity assay (WST-1 / Neutral Red). The settings on record: 24-h incubation; for IC50: Cricetulus griseus, 24 h. It is filed as cell-based. The protocol:
The cytotoxic activities of compounds were assessed on Chinese hamster Ovary cells (CHO-K1) provided from ATCC-LGC Standards Sarl (Molsheim, France). Cells were maintained in Mc Coy’s 5A (CHO) medium supplemented with 10% bovine calf serum, 2 mM glutamine, and 100 U mL^−1/10 µg mL^−1 penicillin/streptomycin mixtures. For the cytotoxicity experiments, they were seeded in 96-well plates and incubated at 37 °C in humidified atmosphere containing 5% CO2 overnight, then concentrations of compounds were incorporated in triplicate cultures. After a 24-h incubation period at 37 °C, cells were submitted to three successive washes in phosphate buffer saline (PBS) and cell viability was evaluated by two different vital dyes: • i. A first set of cell cultures was incubated in PBS containing 10% WST-1 for 30 min at 37 °C, 5% CO2. Cell viability was evaluated by the assessment of WST-1 absorbance at 450 nm in a microplate spectrophotometer. • ii. A second set of cell cultures was placed into Neutral Red medium (50 μg mL^−1 Neutral Red in complete medium) and incubated for 3 h at 37 °C, 5% CO2. Then the Neutral Red medium was removed and the distaining solution (50% ethanol, 1% acetic acid, 49% distilled water; 50 µL per well) was added into the wells. The plates were shaken for 15–20 min at room temperature in the dark. Cell viability was evaluated by the assessment of absorbance at 540 nm in a microplate spectrophotometer.
Results were expressed as percentages of cell viability about the control (culture medium-only), which corresponded to 100% cell viability. Dose-response curves were calculated by non-linear regression analysis with TableCurve 2D software (V 5.0.1) (Systat Software Inc., San Jose, CA, USA). The Inhibitory Concentration 50% (IC50) was defined as the concentration of compounds that induced a 50% decrease of viable cells.

Molecules are shown by their SMILES. Converted amounts (≈) assume the structure as drawn.

For `COC(=O)CCC(C)C1CCC2C3C(O)CC4CC(NCCCNCCCNCCCN)CCC4(C)C3CCC12C` (centres unmarked) [Claramine D02], the “MIC S. aureus 340” value against S. aureus 340 is given as 4 µg/mL (≈ 6.93 µM). The “MIC S. aureus 25923” value against S. aureus ATCC 25923 (24 h) is 7 µg/mL (≈ 12.1 µM). For the same compound, in the assay on S. intermedius 1051997, the “MIC S. intermedius 1051997” value is reported as 1 µg/mL (≈ 1.73 µM). In addition, the “MIC E. faecalis 29212” value against E. faecalis ATCC29212 (24 h) amounted to 30 µg/mL (≈ 52 µM). Further, the “MIC E. coli 1956” value against E. coli 1956 (24 h) was 60 µg/mL (≈ 104 µM). For the same compound, the “MIC E. coli 25922” value against E. coli ATCC 25922 (24 h) came to 4 µg/mL (≈ 6.93 µM). In addition, the “MIC P. aeruginosa 1051575” value in the assay on P. aeruginosa 1051575 is 7 µg/mL (≈ 12.1 µM). The “MIC P. aeruginosa 27853” value against P. aeruginosa ATCC 27853 (24 h) worked out at 30 µg/mL (≈ 52 µM). Also, in assay [1], the “IC50 CHO” value is listed as 20 µg/mL (≈ 34.7 µM).

A word on the MIC: it is the lowest concentration that inhibits growth of the organism. Consider `CC(C)OC(=O)CCC(C)C1CCC2C3C(O)CC4CC(NCCN(CCN)CCN)CCC4(C)C3CCC12C` (centres unmarked) [Claramine D10], for which, in the assay with S. aureus 340, the “MIC S. aureus 340” value is listed as 28 µg/mL (≈ 49.7 µM). Also, the minimal inhibitory concentration (MIC) in the assay with S. aureus ATCC 25923 was 28 µg/mL (≈ 49.7 µM); in the assay on S. intermedius 1051997, 7 µg/mL (≈ 12.4 µM); in the assay with E. faecalis ATCC29212, 56 µg/mL (≈ 99.5 µM); in the assay on E. coli 1956 it was 56 µg/mL (≈ 99.5 µM); with E. coli ATCC 25922, 110 µg/mL (≈ 195 µM); against P. aeruginosa ATCC 27853 it was 110 µg/mL (≈ 195 µM). In the assay on P. aeruginosa 1051575, the “MIC P. aeruginosa 1051575” value turned out to be 14 µg/mL (≈ 24.9 µM). In [1], the “IC50 CHO” value is recorded as 80 µg/mL (≈ 142 µM).

One may read the IC50 as the point on the concentration scale where inhibition reaches its midpoint. High values mean lower potency, low ones higher potency. With `CC(C)OC(=O)CCC(C)C1CCC2C3CCC4CC(NCCCNCCCCNCCCN)CCC4(C)C3CCC12C` (centres unmarked) [Claramine E01], the minimum inhibitory concentration (MIC) in the assay on S. aureus 340 is 4 µg/mL (≈ 6.63 µM); in the assay on S. aureus ATCC 25923 it was 4 µg/mL (≈ 6.63 µM); in the assay on S. intermedius 1051997, 2 µg/mL (≈ 3.32 µM); with E. faecalis ATCC29212, 8 µg/mL (≈ 13.3 µM); against E. coli 1956, 8 µg/mL (≈ 13.3 µM); with E. coli ATCC 25922, 15 µg/mL (≈ 24.9 µM). Moreover, the MIC against P. aeruginosa 1051575 is 8 µg/mL (≈ 13.3 µM); with P. aeruginosa ATCC 27853, 15 µg/mL (≈ 24.9 µM). Also, it took 24 µg/mL (≈ 39.8 µM) to reach half-maximal inhibition in assay [1] (IC50).

`CC(C)OC(=O)CCC(C)C1CCC2C3CCC4CC(NCCCNCCCNCCCN)CCC4(C)C3CCC12C` (centres unmarked) [Claramine E02]: the MIC against S. aureus 340 is 7 µg/mL (≈ 11.9 µM); in the assay with S. aureus ATCC 25923, 7 µg/mL (≈ 11.9 µM); in the assay on S. intermedius 1051997, 1 µg/mL (≈ 1.7 µM); in the assay on E. faecalis ATCC29212 it was 14 µg/mL (≈ 23.8 µM); against E. coli 1956, 7 µg/mL (≈ 11.9 µM); against E. coli ATCC 25922 it was 14 µg/mL (≈ 23.8 µM). The minimal inhibitory concentration (MIC) against P. aeruginosa 1051575 worked out at 2 µg/mL (≈ 3.4 µM); with P. aeruginosa ATCC 27853, 28 µg/mL (≈ 47.5 µM). Further, in [1], half-maximal inhibition (IC50) was put at 15 µg/mL (≈ 25.5 µM).

For `CC(C)OC(=O)CCC(C)C1CCC2C3CCC4CC(NCCCNCCCCN)CCC4(C)C3CCC12C` (centres unmarked) [Claramine E03], the minimum inhibitory concentration (MIC) against S. aureus 340 is 7 µg/mL (≈ 12.8 µM); in the assay on S. aureus ATCC 25923, 3 µg/mL (≈ 5.5 µM); in the assay on S. intermedius 1051997, 2 µg/mL (≈ 3.66 µM); in the assay on E. faecalis ATCC29212, 7 µg/mL (≈ 12.8 µM); in the assay with E. coli 1956 it was 14 µg/mL (≈ 25.6 µM); against E. coli ATCC 25922, 100 µg/mL (≈ 183 µM). The minimum inhibitory concentration (MIC) in the assay with P. aeruginosa 1051575 turned out to be 7 µg/mL (≈ 12.8 µM); in the assay with P. aeruginosa ATCC 27853, 27 µg/mL (≈ 49.5 µM). Besides, the half-maximal inhibitory concentration (IC50) in assay [1] was found to be 56 µg/mL (≈ 103 µM).

In the case of `CC(C)OC(=O)CCC(C)C1CCC2C3CCC4CC(NCCCN5CCN(CCCN)CC5)CCC4(C)C3CCC12C` (centres unmarked) [Claramine E05], the MIC was determined as 8 µg/mL (≈ 13.3 µM) against S. aureus 340; 15 µg/mL (≈ 25 µM) against S. aureus ATCC 25923; 15 µg/mL (≈ 25 µM) in the assay on S. intermedius 1051997; 30 µg/mL (≈ 49.9 µM) in the assay with E. faecalis ATCC29212; 15 µg/mL (≈ 25 µM) against E. coli 1956; 15 µg/mL (≈ 25 µM) against E. coli ATCC 25922. Besides, the MIC worked out at 8 µg/mL (≈ 13.3 µM) in the assay with P. aeruginosa 1051575 and 60 µg/mL (≈ 99.8 µM) in the assay with P. aeruginosa ATCC 27853. Besides, in assay [1], the “IC50 CHO” value worked out at 50 µg/mL (≈ 83.2 µM). The compound further came in with an IC50 in assay [1] of 46 µg/mL (≈ 76.5 µM).

In the case of `CC(C)OC(=O)CCC(C)C1CCC2C3CCC4CC(NCCN(CCN)CCN)CCC4(C)C3CCC12C` (centres unmarked) [Claramine E22], the minimum inhibitory concentration (MIC) against S. aureus 340 stood at 14 µg/mL (≈ 25.6 µM); in the assay on S. aureus ATCC 25923, 14 µg/mL (≈ 25.6 µM); in the assay on S. intermedius 1051997, 7 µg/mL (≈ 12.8 µM); with E. faecalis ATCC29212, 55 µg/mL (≈ 101 µM); against E. coli 1956, 55 µg/mL (≈ 101 µM); against E. coli ATCC 25922, 110 µg/mL (≈ 201 µM). Besides, the MIC worked out at 55 µg/mL (≈ 101 µM) with P. aeruginosa 1051575 and 110 µg/mL (≈ 201 µM) against P. aeruginosa ATCC 27853. In addition, the “IC50 CHO” value in assay [1] amounted to 105 µg/mL (≈ 192 µM). In addition, the half-maximal inhibitory concentration (IC50) in assay [1] was found to be 107 µg/mL (≈ 196 µM).
